Measurements reported in BindingDB's records for doi:10.1016/s0960-894x(00)00402-9 (Pharmacia, 2000).

molecular target: DNA polymerase catalytic subunit (Human cytomegalovirus) (UniProt P08546); assay: Inhibitory activity against Human Cytomegalovirus (HCMV) polymerase
Sequence (P08546 whole entry, looked up): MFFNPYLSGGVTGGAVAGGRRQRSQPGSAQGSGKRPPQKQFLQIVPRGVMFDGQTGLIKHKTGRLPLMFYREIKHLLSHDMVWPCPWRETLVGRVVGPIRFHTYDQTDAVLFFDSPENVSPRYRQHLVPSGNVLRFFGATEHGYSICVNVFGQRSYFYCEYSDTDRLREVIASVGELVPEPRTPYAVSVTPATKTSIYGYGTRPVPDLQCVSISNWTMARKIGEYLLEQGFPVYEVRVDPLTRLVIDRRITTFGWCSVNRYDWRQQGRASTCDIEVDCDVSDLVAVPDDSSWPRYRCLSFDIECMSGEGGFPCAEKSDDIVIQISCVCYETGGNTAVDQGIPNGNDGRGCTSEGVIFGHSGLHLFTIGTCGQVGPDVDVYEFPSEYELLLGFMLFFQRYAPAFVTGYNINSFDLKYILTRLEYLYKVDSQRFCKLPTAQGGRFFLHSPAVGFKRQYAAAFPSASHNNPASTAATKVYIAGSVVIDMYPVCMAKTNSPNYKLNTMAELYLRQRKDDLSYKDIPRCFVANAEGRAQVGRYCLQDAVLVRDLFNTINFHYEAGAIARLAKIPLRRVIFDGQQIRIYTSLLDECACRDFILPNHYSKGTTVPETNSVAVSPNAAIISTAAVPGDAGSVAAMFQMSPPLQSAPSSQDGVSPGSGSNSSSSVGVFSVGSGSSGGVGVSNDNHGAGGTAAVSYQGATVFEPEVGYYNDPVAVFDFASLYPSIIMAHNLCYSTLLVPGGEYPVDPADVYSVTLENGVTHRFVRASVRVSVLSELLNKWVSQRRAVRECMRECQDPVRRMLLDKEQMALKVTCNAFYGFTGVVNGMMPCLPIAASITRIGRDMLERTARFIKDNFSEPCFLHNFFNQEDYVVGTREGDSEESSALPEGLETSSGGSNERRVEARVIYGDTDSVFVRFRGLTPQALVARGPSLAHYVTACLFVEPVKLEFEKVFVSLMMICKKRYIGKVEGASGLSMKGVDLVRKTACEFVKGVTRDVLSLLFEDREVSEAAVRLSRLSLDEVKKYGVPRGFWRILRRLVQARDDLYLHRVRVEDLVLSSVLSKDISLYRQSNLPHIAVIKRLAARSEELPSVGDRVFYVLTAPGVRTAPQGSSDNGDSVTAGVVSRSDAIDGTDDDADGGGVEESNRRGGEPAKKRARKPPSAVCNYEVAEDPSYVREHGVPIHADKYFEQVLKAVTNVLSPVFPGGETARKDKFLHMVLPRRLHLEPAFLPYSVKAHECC

**Q.** COc1ccc(NC(=O)c2cc3ccccc3cc2O)cc1 was tested. Which IC50 did it give?
**A.** 56 µM

**Q.** COc1ccc2cc(O)c(CNCc3ccc(Cl)cc3)cc2c1 [3-[(4-Chloro-benzylamino)-methyl]-6-methoxy-naphthalen-2-ol] was tested. Which IC50 did it give?
**A.** > 100 µM

**Q.** Which IC50 does the source give for O=C(Nc1cccc([N+](=O)[O-])c1)c1cc2ccccc2cc1O here?
**A.** 12 µM

**Q.** O=C(NCc1ccc(Cl)cc1)c1cc2cc(O)ccc2cc1O [3,7-Dihydroxy-naphthalene-2-carboxylic acid 4-chloro-benzylamide] was tested. Which IC50 did it give?
**A.** 2.4 µM

**Q.** For O=C(NCc1ccc(Cl)cc1)c1cc2cccc(O)c2cc1O [3,5-Dihydroxy-naphthalene-2-carboxylic acid 4-chloro-benzylamide], which IC50 is on record?
**A.** 3.3 µM

**Q.** With COc1ccc2cc(O)c(C(=O)NCc3ccc([N+](=O)[O-])cc3)cc2c1 [3-Hydroxy-7-methoxy-naphthalene-2-carboxylic acid 4-nitro-benzylamide] as the molecule, how does the IC50 read?
**A.** 0.82 µM

**Q.** With COc1cc2ccccc2cc1C(=O)Nc1ccc([N+](=O)[O-])cc1 [3-Methoxy-naphthalene-2-carboxylic acid (4-nitro-phenyl)-amide] as the molecule, how does the IC50 read?
**A.** > 100 µM

**Q.** With O=C(NCCc1ccc(Cl)cc1)c1cc2ccccc2cc1O [3-Hydroxy-naphthalene-2-carboxylic acid [2-(4-chloro-phenyl)-ethyl]-amide] as the molecule, how does the IC50 read?
**A.** > 100 µM

**Q.** Which IC50 does the source give for O=C(Nc1ccc(Cl)cc1)c1cc2ccccc2cc1O [3-Hydroxy-naphthalene-2-carboxylic acid (4-chloro-phenyl)-amide] here?
**A.** 69 µM

**Q.** How did the IC50 turn out when COc1ccc2cc(O)c(C(=O)Nc3nc(-c4ccc(Cl)cc4)cs3)cc2c1 [3-Hydroxy-7-methoxy-naphthalene-2-carboxylic acid [4-(4-chloro-phenyl)-thiazol-2-yl]-amide] was run?
**A.** 6 µM

**Q.** O=C(NCc1ccc([N+](=O)[O-])cc1)c1cc2cc(Br)ccc2c(Br)c1O [4,7-Dibromo-3-hydroxy-naphthalene-2-carboxylic acid 4-nitro-benzylamide] was tested. Which IC50 did it give?
**A.** 2.9 µM

**Q.** With COc1cc2ccccc2cc1C(=O)NCc1ccc(Cl)cc1 [3-Methoxy-naphthalene-2-carboxylic acid 4-chloro-benzylamide] as the molecule, how does the IC50 read?
**A.** 8 µM

**Q.** For O=C(NCc1ccc(Cl)cc1)c1ccc2ccccc2c1 [Naphthalene-2-carboxylic acid 4-chloro-benzylamide], which IC50 is on record?
**A.** > 100 µM

**Q.** For COc1ccc2cc(O)c(C(=O)Nc3ncc(Cl)s3)cc2c1 [3-Hydroxy-7-methoxy-naphthalene-2-carboxylic acid (5-chloro-thiazol-2-yl)-amide], which IC50 is on record?
**A.** 59 µM

**Q.** Which IC50 does the source give for COc1ccc2cc(O)c(C(=O)Nc3nc(-c4cccc([N+](=O)[O-])c4)cs3)cc2c1 [3-Hydroxy-7-methoxy-naphthalene-2-carboxylic acid [4-(3-nitro-phenyl)-thiazol-2-yl]-amide] here?
**A.** 2.4 µM

**Q.** O=C(NCc1ccc([N+](=O)[O-])cc1)c1cc2cccc(O)c2cc1O [3,5-Dihydroxy-naphthalene-2-carboxylic acid 4-nitro-benzylamide] was tested. Which IC50 did it give?
**A.** 3.8 µM

**Q.** For O=C(Nc1ccccc1)c1cc2ccccc2cc1O [3-Hydroxy-naphthalene-2-carboxylic acid phenylamide], which IC50 is on record?
**A.** > 100 µM

**Q.** For O=C(Nc1ccc([N+](=O)[O-])cc1)c1cc2ccccc2cc1O [3-Hydroxy-naphthalene-2-carboxylic acid (4-nitro-phenyl)-amide], which IC50 is on record?
**A.** 22 µM

**Q.** How did the IC50 turn out when O=C(Nc1cccnc1)c1cc2ccccc2cc1O [3-Hydroxy-naphthalene-2-carboxylic acid pyridin-3-ylamide] was run?
**A.** > 100 µM

**Q.** Which IC50 does the source give for O=C(NCc1ccc(Cl)cc1)c1ccc2ccccc2c1O [1-Hydroxy-naphthalene-2-carboxylic acid 4-chloro-benzylamide] here?
**A.** 13 µM

**Q.** Which IC50 does the source give for COc1ccc2cc(O)c(C(=O)NCc3ccc(Cl)cc3)cc2c1 [3-Hydroxy-7-methoxy-naphthalene-2-carboxylic acid 4-chloro-benzylamide] here?
**A.** 0.76 µM

**Q.** With O=C(NCc1ccc(Cl)cc1)c1cc2ccccc2cc1O [3-Hydroxy-naphthalene-2-carboxylic acid 4-chloro-benzylamide] as the molecule, how does the IC50 read?
**A.** 52 µM

**Q.** With O=C(Nc1ccc(Cl)cc1)c1ccc2ccccc2c1O [1-Hydroxy-naphthalene-2-carboxylic acid (4-chloro-phenyl)-amide] as the molecule, how does the IC50 read?
**A.** 37 µM

**Q.** With COCOc1cc2ccccc2cc1C(=O)Nc1ccc([N+](=O)[O-])cc1 [3-Methoxymethoxy-naphthalene-2-carboxylic acid (4-nitro-phenyl)-amide] as the molecule, how does the IC50 read?
**A.** > 100 µM

**Q.** Which IC50 does the source give for O=C(NCc1ccc([N+](=O)[O-])cc1)c1ccc2ccccc2c1O [1-Hydroxy-naphthalene-2-carboxylic acid 4-nitro-benzylamide] here?
**A.** 14.5 µM

**Q.** With O=C(NCCc1ccc([N+](=O)[O-])cc1)c1cc2ccccc2cc1O [3-Hydroxy-naphthalene-2-carboxylic acid [2-(4-nitro-phenyl)-ethyl]-amide] as the molecule, how does the IC50 read?
**A.** > 100 µM

**Q.** Which IC50 does the source give for O=C(Nc1ccc(Br)cc1)c1cc2ccccc2cc1O [3-Hydroxy-naphthalene-2-carboxylic acid (4-bromo-phenyl)-amide] here?
**A.** 22 µM

**Q.** How did the IC50 turn out when COc1ccc2cc(O)c(C(=O)Nc3nc4c(Cl)cccc4s3)cc2c1 [3-Hydroxy-7-methoxy-naphthalene-2-carboxylic acid (4-chloro-benzothiazol-2-yl)-amide] was run?
**A.** 6.4 µM

**Q.** With Nc1cccc(NC(=O)c2cc3ccccc3cc2O)c1 [3-Hydroxy-naphthalene-2-carboxylic acid (3-amino-phenyl)-amide] as the molecule, how does the IC50 read?
**A.** > 100 µM

**Q.** N#Cc1ccc(NC(=O)c2cc3ccccc3cc2O)cc1 [3-Hydroxy-naphthalene-2-carboxylic acid (4-cyano-phenyl)-amide] was tested. Which IC50 did it give?
**A.** 19 µM

**Q.** O=C(Nc1ccccn1)c1cc2ccccc2cc1O [3-Hydroxy-naphthalene-2-carboxylic acid pyridin-2-ylamide] was tested. Which IC50 did it give?
**A.** > 100 µM

**Q.** With O=C(NCc1ccc([N+](=O)[O-])cc1)c1cc2cc(O)ccc2cc1O [3,7-Dihydroxy-naphthalene-2-carboxylic acid 4-nitro-benzylamide] as the molecule, how does the IC50 read?
**A.** 10.6 µM

**Q.** For O=C(Nc1ccc([N+](=O)[O-])cc1)c1ccc2ccccc2c1 [Naphthalene-2-carboxylic acid (4-nitro-phenyl)-amide], which IC50 is on record?
**A.** > 100 µM

**Q.** How did the IC50 turn out when COc1ccc2cc(O)c(C(=O)Nc3nnc(Cc4ccc(Cl)cc4)s3)cc2c1 [3-Hydroxy-7-methoxy-naphthalene-2-carboxylic acid [5-(4-chloro-benzyl)-[1,3,4]thiadiazol-2-yl]-amide] was run?
**A.** 4 µM

**Q.** O=C(NCc1ccc([N+](=O)[O-])cc1)c1cc2ccccc2cc1O [3-Hydroxy-naphthalene-2-carboxylic acid 4-nitro-benzylamide] was tested. Which IC50 did it give?
**A.** 12 µM
